Source: patent publication US20030036513A1, “Method for treating cancer” (priority 1999, published 2003)

Key:
[1] = system: Human LNCaP cells; assay: Two-step arsenic then Mesna treatment of human LNCaP cells: apoptosis and glutathione levels (FIG. 1); assay type: cell-based
Procedure: In one aspect, the present invention further provides a method of using a redox clamping agent as a chemosensitizer comprising contacting tumor cells with a specific class of cytotoxic agent for a period of time, preferably between 2 and 4 hours, and then washing the agent from the cells and administering the redox clamping agent. It is preferred that the redox clamping agent is Mesna. The cytotoxic or anti-cancer agents used in this design would be those such as arsenic, hydrogen peroxide and other anti-cancer agents that are known to induce a cytotoxic effect by interacting with, depleting or sequestering cellular thiols. During the two to four hour treatment these anti-cancer agents deplete cellular thiols and induce apoptotic mechanisms in the cells. However, the stress-response that is induced in the cells by these anti-cancer agents also up-regulates the production of antioxidants such as glutathione and metallothionein. These antioxidants function as potent inhibitors of apoptosis. If redox clamping agents are added after the apoptotic mechanisms are initiated, but prior to the antioxidant rebound, the redox clamping agents will function in two ways to enhance the cytotoxic effects of the anti-cancer agents. It is preferred that the redox clamping agent be Mesna, which is a thiol with low reducing potential. First, the redox clamping agents will permit the progression of apoptotic signals and the mechanisms required to mediate cell death. Secondly, the redox clamping agents will promote the apoptotic response by dramatically attenuating the antioxidant “rebound” that is associated in the inhibition of apoptosis. Redox clamping agents chemically interact with the anti-cancer agent or oppose aspects of the early stress-response that is induced by pure oxidants. Therefore, a two-step treatment protocol is required.
Human LNCaP cells, treated with 100 uM arsenic for 2 hours then washed and re-fed with normal medium, develop an elevation in cellular glutathione levels over a 24-hour period. Since exogenous antioxidants are known to be potent inhibitors of apoptotic mechanism, it is believed that internally-produced antioxidants such as glutathione function in a similar manner. […] Although Mesna increases apoptosis alone, the low concentrations of Mesna utilized in this two-step treatment protocol increased apoptosis minimally i.e., to 11 percent from a background of 3 to 5 percent in untreated cells.
(§1) In all of the experiments associated with the investigation of Mesna as a redox clamping agent, as a stand-alone anticancer agent as well as a chemosensitizer, the cell culture medium used was Swim's S-77 medium containing 12 uM cystine, instead of conventional levels of this amino acid (i.e., 50 uM). […]

[2] = system: H4 Rat Hepatoma cells; assay: Stress-induced antioxidant upswing in H4 Rat Hepatoma cells after hydrogen peroxide; assay type: cell-based; conditions: 100 uM hydrogen peroxide for two hours, medium replaced; determined after 24 hours in culture
Procedure: To further exemplify the redox clamping properties of Mesna, stress was induced in H4 Rat Hepatoma cells by treatment with 100 uM hydrogen peroxide for two hours and then the medium was removed and replaced with an anti-cancer agent. The cellular viability, as well as glutathione and metallothionein levels were determined after 24 hours in culture. […] The inhibition of stress induced upswing in antioxidant levels is characteristic of redox clamping agents.
In all of the experiments associated with the investigation of Mesna as a redox clamping agent, as a stand-alone anticancer agent as well as a chemosensitizer, the cell culture medium used was Swim's S-77 medium containing 12 uM cystine, instead of conventional levels of this amino acid (i.e., 50 uM). All other components of the medium were maintained at conventional concentrations. […] The ability of cystine to supply cells with cysteine, which then function as a precursor amino acid for glutathione synthesis, is thought to be responsible for the abnormally high basal levels of glutathione in cultured tumor cell lines.

[3] = system: human tumor cell lines; assay: Growth inhibition of human tumor cell lines in culture; assay type: cell-based
Source text: The present invention provides a method of treating lymphoma, ovarian cancer, colorectal cancer, or gastric cancer comprising administering an effective amount of Mesna to a patient with lymphoma, ovarian cancer, colorectal cancer or gastric cancer. Mesna inhibits the growth of several human tumor cell lines in culture, and there are no strict relationships between the histopathological origin of the cell lines and the sensitivity of the cell lines to Mesna. […] It is further preferred that the patient be administered Mesna for a seven to ten day period. The doses may be cycled. The actual dose will be dependent on the size, type and location of the tumor as well as the overall status of the patient. It is preferred that high concentrations of Mesna be administered intravenously to achieve clamping initially, with further administration of oral doses to maintain the clamped state. […] Cancer cell lines were growth inhibited when Mesna was administered on several consecutive days. Mesna has shown good activity in preventing the urotoxicity of oxazaphosphorine compound.
as §1

[4] = system: metastatic and/or relapsed tumors refractory to conventional therapy; assay: Clinical study of oral Mesna as single agent in 14 patients with metastatic and/or relapsed tumors refractory to conventional therapy; assay type: in vivo, human
Procedure: From December 1996 to March 1998 a study was performed on 14 ambulatory patients with metastatic and/or relapsed tumors refractory to conventional therapy. Eligibility criteria included histologically-confirmed advanced cancer, patients age was greater than 18 years, with a life expectancy no less than two months. The patients had not undergone major surgery within 2 weeks, or radiotherapy and/or chemotherapy within one month of the study. […] Exclusion criteria included active uncontrolled infection, pregnancy, lactation and any other co-existing medical problems severe enough to prevent full compliance with the study. Objectively measurable disease in the patients was required. All patients gave informed written consent before treatment. 600 mg/m^2 of Mesna was given by oral route four times a day, masked in orange juice for 10 consecutive days. Cycles were repeated every 15 days. No simultaneous chemotherapy and or radiotherapy and no other supportive care was given. The main objective of the study was to determine the anti-tumoral activity and toxicity of Mesna for heavily and or refractory pretreated cancer patients. […] The patients were all previously treated with between two and four different chemotherapy regimens. Mesna was administered as a single agent to all of the patients in the study. The toxic effects of Mesna and number of nodes were assessed during the first cycle of Mesna administration. […] For colorectal cancer a greater than 50% reduction of nodular lesions metastasized to liver was registered, during the second schedule of therapy. For gastric cancer a greater than 50% reduction of a subcutaneous nodule was measured during the second course of Mesna treatment.

[5] = within a few minutes after administration; cited from earlier work
[6] = even in very high dose, i.e. 1000 mg/kg; cited from earlier work
[7] = system: cells; assay: Chemosensitizing of an anti-cancer agent by a co-administered redox clamping agent (FIG. 2); assay type: cell-based
Source text: The present invention further provides a method of reducing the effective dose of an anti-cancer agent necessary to be effective against cancer comprising administering a redox clamping agent in conjunction with an anti-cancer agent. It is preferred that the redox clamping agent is Mesna or DMSA. Redox clamping agents have the ability to maintain cells in a selected redox state. […] Redox clamping agents are useful in enhancing the therapeutic activity of chemotherapeutic agents such as butyrate that are dependent upon the redox state of the cell. Redox clamping agents are further useful in controlling hyperproliferation of cells and conditions associated with abnormal fluctuations in the redox state of cells. In one aspect, this invention provides a method of treating cancerous tumors comprising administering an effective dose of an anti-cancer agent in conjunction with a redox clamping agent, wherein the redox clamping agent acts as a chemoenhancer or a chemosensitizer. […] The administration of Mesna in conjunction with an anti-cancer agent may be as separate compounds or in a composition formulated and titrated to a dose and in a concentration that would achieve the optimal therapeutic dose of the anti-cancer agent providing a higher tumor cell kill with a lower dose of the anti-cancer agent than the typical therapeutic dose administered to a patient. […]

[8] = arsenic treated cells washed and incubated in medium containing 100 uM Mesna

In the case of `O=S(=O)([O-])CCS.[Na+]` [Mesna, Sodium-2-mercaptoethane sulphonate], the “elevation in glutathione levels” value [1, 8] is reported as “dramatically diminished”, the “fraction of apoptotic cells compared to arsenic alone” value [1, 8] is reported as “increased more than two-fold” and the “apoptosis with Mesna alone” value ([1]; low concentration of Mesna as used in the two-step protocol, background 3 to 5 percent in untreated cells) is reported as 11%. For the same compound, the “effect on stress-induced upswings in antioxidant levels (glutathione, metallothionein)” value [2] was “oppose stress-induced upswings in antioxidant levels”, the “incorporation of 3H-thymidine, proline and uridine” value [3] was “inhibited incorporation” and the “growth of human tumor cell lines in culture” value ([3]; lymphoma, ovarian cancer, colorectal cancer, gastric cancer lines, drug administered on several consecutive days) was “inhibits growth of several human tumor cell lines”. The “reduction of nodular lesions metastasized to liver” value ([4]; colorectal cancer patient, 600 mg/m^2 oral four times a day, second schedule of therapy) was “greater than 50%”, the “reduction of a subcutaneous nodule” value ([4]; gastric cancer patient, 600 mg/m^2 oral four times a day, second course of treatment) was “greater than 50%” and the objective responses ([4]; patients with lung cancer, soft tissue sarcoma, skin metastases of unknown origin, bladder cancer, melanoma and cancer of the cervix) was “No objective responses were achieved”. The “clinical response in ovarian cancer patients” value ([4]; two patients, 600 mg/m^2 oral four times a day for 10 days, cycles every 15 days, second and third course respectively) was “reduced ascites and pain”, the “administered dose transformed into Mesna disulphide” value [5] was “more than 90%” and the “pharmacological and toxicological behaviour” value [6] was “relatively inert substance”.
For `O=C(O)[C@@H](S)[C@@H](S)C(=O)O` [DMSA], the “effect on stress-induced upswings in antioxidant levels (glutathione, metallothionein)” value [2] was “oppose stress-induced upswings in antioxidant levels”.
For `CCCC(=O)O` [Butyrate], the “concentration at which apoptosis is induced” value ([7]; butyrate alone) was “greater than 3 mM” and the “concentration giving an effective kill” value ([7]; in the presence of a redox clamping agent) was no less than 0.5 mM.
With `[AsH3]` [arsenic] the “apoptosis of the cells” value ([1]; 100 uM arsenic for 2 hours, then washed and re-fed with normal medium, 24-hour period) was 28%.
